Assays:
Test in all cases: In vitro MIC, 2010 surveillance isolates
E. cloacae CeftazS = type: cell-based
K. oxytoca = type: cell-based
MR CoNS = type: cell-based, Coagulase-Negative Staphylococcus
K. pneumoniae ESBL− = type: cell-based, Klebsiella pneumoniae
MSSA = type: cell-based
E. coli ESBL− = type: cell-based, Escherichia coli
MRSA = type: cell-based
A. baumanii = type: cell-based; conditions: for % R (resistance): CLSI breakpoints
E. faecalis VS = type: cell-based
E. faecalis VNS = type: cell-based
E. coli ESBL+ = type: cell-based, Escherichia coli
MS CoNS = type: cell-based, Coagulase-Negative Staphylococcus
K. pneumoniae ESBL+ = type: cell-based, Klebsiella pneumoniae
E. faecium VNS = type: cell-based
E. faecium VS = type: cell-based
Acinetobacter spp = type: cell-based; conditions: for % R (resistance): CLSI breakpoints
E. cloacae CeftazR = type: cell-based
Enterobacter spp = type: cell-based

piperacillin-tazobactam [Pip/tazo] was tested, and the “% R (resistance)” value (E. cloacae CeftazS; Asia/Pac, Eucast breakpoints) was 1%, the MIC90 (E. cloacae CeftazS; Asia/Pac, N=100) was 4 µg/mL and the “% R (resistance)” value (E. cloacae CeftazS; Europe, Eucast breakpoints) was 1.1%. For the same substance, the MIC90 (E. cloacae CeftazS; Europe, N=183) was 4 µg/mL, the “% R (resistance)” value (E. cloacae CeftazS; L. Amer, CLSI breakpoints) was 3.5% and the MIC90 (E. cloacae CeftazS; L. Amer, N=57) was 16 µg/mL. For the same substance, the “% R (resistance)” value (E. cloacae CeftazS; N America, CLSI breakpoints) was 0.5%, the MIC90 (E. cloacae CeftazS; N America, N=210) was 4 µg/mL and the “% R (resistance)” value (K. oxytoca; Asia/Pac, Eucast breakpoints) was 17.6%. For the same substance, the MIC90 (K. oxytoca; Asia/Pac, N=17) was 64 µg/mL, the “% R (resistance)” value (K. oxytoca; Europe, Eucast breakpoints) was 13.3% and the MIC90 (K. oxytoca; Europe, N=158) was greater than 64 µg/mL. For the same substance, the “% R (resistance)” value (K. oxytoca; L. Amer, CLSI breakpoints) was 16%, the MIC90 (K. oxytoca; L. Amer, N=25) was greater than 64 µg/mL and the “% R (resistance)” value (K. oxytoca; N America, CLSI breakpoints) was 7.9%. For the same substance, the MIC90 (K. oxytoca; N America, N=177) was 16 µg/mL, the “% R (resistance)” value (MR CoNS; Asia/Pac, Eucast breakpoints) was 100% and the MIC90 (MR CoNS; Asia/Pac, N=77) was greater than 64 µg/mL. The “% R (resistance)” value (MR CoNS; Europe, Eucast breakpoints) was 100%, the MIC90 (MR CoNS; Europe, N=510) was greater than 64 µg/mL and the “% R (resistance)” value (MR CoNS; L. Amer, CLSI breakpoints) was 100%. The MIC90 (MR CoNS; L. Amer, N=301) was greater than 64 µg/mL, the “% R (resistance)” value (MR CoNS; N America, CLSI breakpoints) was 100% and the MIC90 (MR CoNS; N America, N=461) was 16 µg/mL. The “% R (resistance)” value (K. pneumoniae ESBL−; Asia/Pac, Eucast breakpoints) was 2.1%, the MIC90 (K. pneumoniae ESBL−; Asia/Pac, N=189) was 8 µg/mL and the “% R (resistance)” value (K. pneumoniae ESBL−; Europe, Eucast breakpoints) was 0%. For the same substance, the MIC90 (K. pneumoniae ESBL−; Europe, N=361) was 8 µg/mL, the “% R (resistance)” value (K. pneumoniae ESBL−; L. Amer, CLSI breakpoints) was 1.9% and the MIC90 (K. pneumoniae ESBL−; L. Amer, N=160) was 4 µg/mL. For the same substance, the “% R (resistance)” value (K. pneumoniae ESBL−; N America, CLSI breakpoints) was 0.7%, the MIC90 (K. pneumoniae ESBL−; N America, N=671) was 8 µg/mL and the “% R (resistance)” value (MSSA; Asia/Pac, Eucast breakpoints) was 0%. For the same substance, the MIC90 (MSSA; Asia/Pac, N=641) was 2 µg/mL, the “% R (resistance)” value (MSSA; Europe, Eucast breakpoints) was 0% and the MIC90 (MSSA; Europe, N=2109) was 2 µg/mL. The “% R (resistance)” value (MSSA; L. Amer, CLSI breakpoints) was 0.2%, the MIC90 (MSSA; L. Amer, N=590) was 2 µg/mL and the “% R (resistance)” value (MSSA; N America, CLSI breakpoints) was 0.1%. The MIC90 (MSSA; N America, N=2373) was 2 µg/mL, the “% R (resistance)” value (E. coli ESBL−; Asia/Pac, Eucast breakpoints) was 2.5% and the MIC90 (E. coli ESBL−; Asia/Pac, N=282) was 4 µg/mL. For the same substance, the “% R (resistance)” value (E. coli ESBL−; Europe, Eucast breakpoints) was 5.3%, the MIC90 (E. coli ESBL−; Europe, N=1533) was 4 µg/mL and the “% R (resistance)” value (E. coli ESBL−; L. Amer, CLSI breakpoints) was 1.5%. The MIC90 (E. coli ESBL−; L. Amer, N=389) was 4 µg/mL, the “% R (resistance)” value (E. coli ESBL−; N America, CLSI breakpoints) was 0.9% and the MIC90 (E. coli ESBL−; N America, N=1172) was 4 µg/mL. The “% R (resistance)” value (MRSA; Asia/Pac, Eucast breakpoints) was 100%, the MIC90 (MRSA; Asia/Pac, N=428) was greater than 64 µg/mL and the “% R (resistance)” value (MRSA; Europe, Eucast breakpoints) was 100%. For the same substance, the MIC90 (MRSA; Europe, N=750) was greater than 64 µg/mL, the “% R (resistance)” value (MRSA; L. Amer, CLSI breakpoints) was 100% and the MIC90 (MRSA; L. Amer, N=506) was greater than 64 µg/mL. For the same substance, the “% R (resistance)” value (MRSA; N America, CLSI breakpoints) was 100%, the MIC90 (MRSA; N America, N=2508) was 64 µg/mL and the MIC90 (A. baumanii; Asia/Pac, N=275) was greater than 64 µg/mL. The MIC90 (A. baumanii; Europe, N=145) was greater than 64 µg/mL, the “% R (resistance)” value (A. baumanii; L. Amer) was 88.7% and the MIC90 (A. baumanii; L. Amer, N=275) was greater than 64 µg/mL. The “% R (resistance)” value (A. baumanii; N America) was 70.1%, the MIC90 (A. baumanii; N America, N=154) was greater than 64 µg/mL and the “% R (resistance)” value (E. faecalis VS; Asia/Pac, Eucast breakpoints) was 0%. The MIC90 (E. faecalis VS; Asia/Pac, N=214) was 8 µg/mL, the “% R (resistance)” value (E. faecalis VS; Europe, Eucast breakpoints) was 0% and the MIC90 (E. faecalis VS; Europe, N=669) was 8 µg/mL. For the same substance, the “% R (resistance)” value (E. faecalis VS; L. Amer, CLSI breakpoints) was 0%, the MIC90 (E. faecalis VS; L. Amer, N=290) was 8 µg/mL and the “% R (resistance)” value (E. faecalis VS; N America, CLSI breakpoints) was 0%. For the same substance, the MIC90 (E. faecalis VS; N America, N=863) was 8 µg/mL, the “range of MICs (N <10, shown instead of MIC90)” value (shortened to “range of MICs”) (E. faecalis VNS; Asia/Pac, N=1) was 8 and the “% R (resistance)” value (E. faecalis VNS; Europe, Eucast breakpoints) was 0%. The “range of MICs” value (E. faecalis VNS; Europe, N=8) was 4-16, the “% R (resistance)” value (E. faecalis VNS; L. Amer, CLSI breakpoints) was 0% and the “range of MICs” value (E. faecalis VNS; L. Amer, N=7) was 4-8. For the same substance, the “% R (resistance)” value (E. faecalis VNS; N America, CLSI breakpoints) was 0%, the MIC90 (E. faecalis VNS; N America, N=38) was 8 µg/mL and the “% R (resistance)” value (E. coli ESBL+; Asia/Pac, Eucast breakpoints) was 7.3%. For the same substance, the MIC90 (E. coli ESBL+; Asia/Pac, N=219) was 16 µg/mL, the “% R (resistance)” value (E. coli ESBL+; Europe, Eucast breakpoints) was 24.1% and the MIC90 (E. coli ESBL+; Europe, N=274) was greater than 64 µg/mL. The “% R (resistance)” value (E. coli ESBL+; L. Amer, CLSI breakpoints) was 7.7%, the MIC90 (E. coli ESBL+; L. Amer, N=168) was 64 µg/mL and the “% R (resistance)” value (E. coli ESBL+; N America, CLSI breakpoints) was 6%. For the same substance, the MIC90 (E. coli ESBL+; N America, N=134) was 64 µg/mL, the “% R (resistance)” value (MS CoNS; Asia/Pac, Eucast breakpoints) was 0% and the MIC90 (MS CoNS; Asia/Pac, N=18) was 1 µg/mL. For the same substance, the “% R (resistance)” value (MS CoNS; Europe, Eucast breakpoints) was 0%, the MIC90 (MS CoNS; Europe, N=185) was no more than 0.5 µg/mL and the “% R (resistance)” value (MS CoNS; L. Amer, CLSI breakpoints) was 0%. The MIC90 (MS CoNS; L. Amer, N=67) was 1 µg/mL, the “% R (resistance)” value (MS CoNS; N America, CLSI breakpoints) was 0% and the MIC90 (MS CoNS; N America, N=191) was no more than 0.5 µg/mL. The “% R (resistance)” value (K. pneumoniae ESBL+; Asia/Pac, Eucast breakpoints) was 47.6%, the MIC90 (K. pneumoniae ESBL+; Asia/Pac, N=124) was greater than 64 µg/mL and the “% R (resistance)” value (K. pneumoniae ESBL+; Europe, Eucast breakpoints) was 57%. For the same substance, the MIC90 (K. pneumoniae ESBL+; Europe, N=151) was greater than 64 µg/mL, the “% R (resistance)” value (K. pneumoniae ESBL+; L. Amer, CLSI breakpoints) was 51.7% and the MIC90 (K. pneumoniae ESBL+; L. Amer, N=209) was greater than 64 µg/mL. The “% R (resistance)” value (K. pneumoniae ESBL+; N America, CLSI breakpoints) was 51.9%, the MIC90 (K. pneumoniae ESBL+; N America, N=108) was greater than 64 µg/mL and the MIC90 (E. faecium VNS; Asia/Pac, N=24) was greater than 64 µg/mL. For the same substance, the MIC90 (E. faecium VNS; Europe, N=71) was greater than 64 µg/mL, the MIC90 (E. faecium VNS; L. Amer, N=41) was greater than 64 µg/mL and the MIC90 (E. faecium VNS; N America, N=478) was greater than 64 µg/mL. The MIC90 (E. faecium VS; Asia/Pac, N=106) was greater than 64 µg/mL, the MIC90 (E. faecium VS; Europe, N=303) was greater than 64 µg/mL and the MIC90 (E. faecium VS; L. Amer, N=51) was greater than 64 µg/mL. The MIC90 (E. faecium VS; N America, N=115) was greater than 64 µg/mL, the MIC90 (Acinetobacter spp; Europe, N=43) was greater than 64 µg/mL and the “% R (resistance)” value (Acinetobacter spp; L. Amer) was 55.6%. For the same substance, the “% R (resistance)” value (Acinetobacter spp; N America) was 19%, the MIC90 (Acinetobacter spp; N America, N=42) was greater than 64 µg/mL and the “% R (resistance)” value (E. cloacae CeftazR; Asia/Pac, Eucast breakpoints) was 55.6%. For the same substance, the MIC90 (E. cloacae CeftazR; Asia/Pac, N=63) was greater than 64 µg/mL, the “% R (resistance)” value (E. cloacae CeftazR; Europe, Eucast breakpoints) was 62.5% and the MIC90 (E. cloacae CeftazR; Europe, N=72) was greater than 64 µg/mL. For the same substance, the “% R (resistance)” value (E. cloacae CeftazR; L. Amer, CLSI breakpoints) was 23.8%, the MIC90 (E. cloacae CeftazR; L. Amer, N=42) was greater than 64 µg/mL and the “% R (resistance)” value (E. cloacae CeftazR; N America, CLSI breakpoints) was 48.1%. The MIC90 (E. cloacae CeftazR; N America, N=77) was greater than 64 µg/mL, the “% R (resistance)” value (Enterobacter spp; Asia/Pac, Eucast breakpoints) was 19.2% and the MIC90 (Enterobacter spp; Asia/Pac, N=52) was 32 µg/mL. The “% R (resistance)” value (Enterobacter spp; Europe, Eucast breakpoints) was 32.9%, the MIC90 (Enterobacter spp; Europe, N=82) was 64 µg/mL and the “% R (resistance)” value (Enterobacter spp; L. Amer, CLSI breakpoints) was 7.1%. The MIC90 (Enterobacter spp; L. Amer, N=42) was 64 µg/mL, the “% R (resistance)” value (Enterobacter spp; N America, CLSI breakpoints) was 4% and the MIC90 (Enterobacter spp; N America, N=101) was 64 µg/mL.

From US10238670B2, “9-aminomethyl minocycline compounds and methods of use thereof in urinary tract infection (UTI) treatment” (Paratek Pharmaceuticals, Inc., priority 2016, dated 2019)
